What was measured:
Experiment in all cases: Post-emergence efficacy, Method A
Format in all cases: in vivo
[1] = system: Ipomoea hederacea (IPOHE); settings: Application rate 500 g/Ha, evaluated after 13 days; for Control of weed species after post-emergence application, IPOHE: 100=total damage to plant, 0=no damage; for Control of weed species IPOHE after post-emergence application (100=total damage to plant; 0=no damage to plant): Method A
Outline: (§1)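 Injury assessed 13 days after a post-emergence spray, 0 = no damage and 100 = total damage. Spray liquid: compound in acetone/IF50 (Emulsogen EL360, N-methylpyrrolidone, Dowanol DPM), diluted with 0.25% or 1% sodium lauryl ether sulphate plus 1% ammonium sulphate.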

Eleusine indica (ELEIN) = settings: Application rate 500 g/Ha, evaluated after 13 days; for Control of weed species after post-emergence application, ELEIN: 100=total damage to plant, 0=no damage; for Control of weed species ELEIN after post-emergence application (100=total damage to plant; 0=no damage to plant): Method A
Outline: as §1

[2] = system: Chenopodium album (CHEAL); settings: Application rate 500 g/Ha, evaluated after 13 days; for Control of weed species after post-emergence application, CHEAL: 100=total damage to plant, 0=no damage; for Control of weed species CHEAL after post-emergence application (100=total damage to plant; 0=no damage to plant): Method A
Outline: as §1

Setaria faberi (SETFA) = settings: Application rate 500 g/Ha, evaluated after 13 days; for Control of weed species after post-emergence application, SETFA: 100=total damage to plant, 0=no damage; for Control of weed species SETFA after post-emergence application (100=total damage to plant; 0=no damage to plant): Method A
Outline: as §1

[3] = system: Euphorbia heterophylla (EPHHL); settings: Application rate 500 g/Ha, evaluated after 13 days; for Control of weed species after post-emergence application, EPHHL: 100=total damage to plant, 0=no damage; for Control of weed species EPHHL after post-emergence application (100=total damage to plant; 0=no damage to plant): Method A
Outline: as §1

Lolium perenne (LOLPE) = settings: Application rate 500 g/Ha, evaluated after 13 days; for Control of weed species after post-emergence application, LOLPE: 100=total damage to plant, 0=no damage; for Control of weed species LOLPE after post-emergence application (100=total damage to plant; 0=no damage to plant): Method A
Outline: as §1

[4] = system: Echinochloa crus-galli (ECHCG); settings: Application rate 500 g/Ha, evaluated after 13 days; for Control of weed species after post-emergence application, ECHCG: 100=total damage to plant, 0=no damage; for Control of weed species ECHCG after post-emergence application (100=total damage to plant; 0=no damage to plant): Method A
Outline: as §1

[5] = system: Amaranthus palmeri (AMAPA); settings: Application rate 500 g/Ha, evaluated after 13 days; for Control of weed species after post-emergence application, AMAPA: 100=total damage to plant, 0=no damage; for Control of weed species AMAPA after post-emergence application (100=total damage to plant; 0=no damage to plant): Method A
Outline: as §1

[6] = system: Digitaria sanguinalis (DIGSA); settings: Application rate 500 g/Ha, evaluated after 13 days; for Control of weed species after post-emergence application, DIGSA: 100=total damage to plant, 0=no damage; for Control of weed species DIGSA after post-emergence application (100=total damage to plant; 0=no damage to plant): Method A
Outline: as §1

| SMILES | Control of weed species after post-emergence application, IPOHE [1] | Control of weed species after post-emergence application, ELEIN (Eleusine indica (ELEIN)) | Control of weed species after post-emergence application, CHEAL [2] | Control of weed species after post-emergence application, SETFA (Setaria faberi (SETFA)) | Control of weed species after post-emergence application, EPHHL [3] | Control of weed species after post-emergence application, LOLPE (Lolium perenne (LOLPE)) | Control of weed species after post-emergence application, ECHCG [4] | Control of weed species after post-emergence application, AMAPA [5] | Control of weed species after post-emergence application, DIGSA [6] | Control of weed species IPOHE after post-emergence application (100=total damage to plant; 0=no damage to plant) [1] | Control of weed species ELEIN after post-emergence application (100=total damage to plant; 0=no damage to plant) (Eleusine indica (ELEIN)) | Control of weed species CHEAL after post-emergence application (100=total damage to plant; 0=no damage to plant) [2] | Control of weed species SETFA after post-emergence application (100=total damage to plant; 0=no damage to plant) (Setaria faberi (SETFA)) | Control of weed species EPHHL after post-emergence application (100=total damage to plant; 0=no damage to plant) [3] | Control of weed species LOLPE after post-emergence application (100=total damage to plant; 0=no damage to plant) (Lolium perenne (LOLPE)) | Control of weed species ECHCG after post-emergence application (100=total damage to plant; 0=no damage to plant) [4] | Control of weed species AMAPA after post-emergence application (100=total damage to plant; 0=no damage to plant) [5] | Control of weed species DIGSA after post-emergence application (100=total damage to plant; 0=no damage to plant) [6] |
| --- | --- | --- | --- | --- | --- | --- | --- | --- | --- | --- | --- | --- | --- | --- | --- | --- | --- | --- |
| O=P([O-])(O)C[n+]1ccc(-c2ccncn2)cn1 [Compound A236] | 40 | 10 | 20 | 30 | 30 | 0 | 50 | 90 | 80 | – | – | – | – | – | – | – | – | – |
| O=c1cc(-c2cc[n+](CCCS(=O)(=O)[O-])nc2)nc[nH]1 [Compound A116] | – | – | – | – | – | – | – | – | – | 10 | 20 | 80 | 30 | 50 | 10 | 20 | 100 | 30 |
| O=S(=O)([O-])CC[n+]1ccc(-c2cccnc2)cn1 [Compound A179] | 20 | 50 | 30 | 60 | 60 | 10 | 40 | 30 | 50 | – | – | – | – | – | – | – | – | – |
| O=C(O)c1ccnc(-c2cc[n+](CCCS(=O)(=O)[O-])nc2)n1 [Compound A146] | – | – | – | – | – | – | – | – | – | 30 | 80 | 40 | 100 | 50 | 50 | 90 | 90 | 80 |
| COP(=O)(C[n+]1ccc(-c2ccncn2)cn1)OC.O=S(=O)([O-])C(F)(F)F [Compound A237] | 50 | 70 | 10 | 20 | 0 | 10 | 10 | 60 | 50 | – | – | – | – | – | – | – | – | – |
| N[C@H](CC[n+]1ccc(-c2ccncn2)cn1)C(=O)O [Compound A235] | 20 | 10 | 40 | 30 | 20 | 0 | 30 | 10 | 40 | – | – | – | – | – | – | – | – | – |
| O=C(O)CC[n+]1ccc(-c2ncc(Cl)c(=O)[nH]2)cn1 [Compound A161, 3-[4-(5-chloro-6-oxo-1H-pyrimidin-2-yl)pyridazin-1-ium-1-yl]propanoic acid 2,2,2-trifluoroacetate] | 20 | 20 | 70 | 10 | 50 | 10 | 20 | 30 | 20 | – | – | – | – | – | – | – | – | – |
| CCOP(=O)(C[n+]1ccc(-c2ncccn2)cn1)OCC.O=C([O-])C(F)(F)F [Compound A230, 1-(diethoxyphosphorylmethyl)-4-pyrimidin-2-yl-pyridazin-1-ium 2,2,2-trifluoroacetate] | 20 | 10 | 60 | 50 | – | 0 | 60 | 50 | 70 | – | – | – | – | – | – | – | – | – |
| O=C(O)CC[n+]1ccc(-c2ncccn2)cn1.O=C([O-])C(F)(F)F [Compound A125, 3-(4-pyrimidin-2-ylpyridazin-1-ium-1-yl)propanoic acid 2,2,2-trifluoroacetate] | – | – | – | – | – | – | – | – | – | – | – | – | – | – | 90 | – | – | – |
| CCOP(=O)(CC[n+]1ccc(-c2cnccn2)cn1)OCC.O=C([O-])C(F)(F)F [Compound A8] | – | – | – | – | – | – | – | – | – | 10 | 20 | 10 | 20 | 10 | 0 | 10 | 10 | 20 |
| COP(=O)(C[n+]1ccc(-c2ncccn2)cn1)OC.O=S(=O)([O-])C(F)(F)F [Compound A238, 1-(dimethoxyphosphorylmethyl)-4-pyrimidin-2-yl-pyridazin-1-ium trifluoromethanesulfonate] | 40 | 30 | 20 | 50 | 50 | 10 | 40 | 50 | 50 | – | – | – | – | – | – | – | – | – |
| NC(=O)c1cnc(-c2cc[n+](CCC(=O)O)nc2)cn1 [Compound A202, 3-[4-(5-carbamoylpyrazin-2-yl)pyridazin-1-ium-1-yl]propanoic acid 2,2,2-trifluoroacetate] | 60 | 20 | 90 | 70 | 100 | 70 | 80 | 100 | 60 | – | – | – | – | – | – | – | – | – |
| CCOP(=O)(O)CCC[n+]1ccc(-c2ncccn2)cn1 [Compound A232] | 0 | 50 | 90 | 80 | – | 20 | 100 | 100 | 90 | – | – | – | – | – | – | – | – | – |
| O=C(O)CC[n+]1ccc(-c2ncccn2)cn1.[Cl-] [Compound A26, 3-(4-pyrimidin-2-ylpyridazin-1-ium-1-yl)propanoic Acid Chloride] | – | – | – | – | – | – | – | – | – | – | – | – | 100 | – | 90 | 100 | – | – |
| O=C(O)CC[n+]1ccc(-c2ccncc2F)cn1.O=C([O-])C(F)(F)F [Compound A157] | – | 90 | 100 | 80 | 80 | – | 80 | 100 | 70 | – | – | – | – | – | – | – | – | – |
| COC(=O)C(C)[n+]1ccc(-c2ncccn2)cn1.O=C([O-])C(F)(F)F (stereo not shown) [Compound A192] | – | 30 | 60 | 20 | 40 | – | 30 | 90 | 30 | – | – | – | – | – | – | – | – | – |

Source: patent US11618743B2, “Herbicidal compounds” (SYNGENTA PARTICIPATIONS AG, priority 2017, dated 2023)
